One series has as its system NIH/3T3 cell line. The series is described as follows: Collagen type 1 immunofluorescence in NIH/3T3 cells (Incucyte). The series is classed as cell-based, mouse. How it is done:
Embryonic mouse fibroblast NIH/3T3 cell line (ATCC) were seeded at a concentration of 50*10^3 cells/well on 96 well glass bottom plate (P96-1.5H-N, Cellvis) for the immunofluorescence experiment and on cell culture microplate, 96 well, PS, F-Bottom (655090, greiner) for the viability experiment. The cells were cultured with Dulbecco's modified Eagle's medium (DMEM) supplemented with 10% fetal calf serum, 1% Penicillin-Streptomycin solution and 1% L-glutamine (All purchased from Rhenium). At 24 hours post seeding, cells were treated for another 48 hours by replacing them with the cell medium supplemented with a serial dilution (5-0.02 μM, factor dilution of 2) of the ML228, Daprodustat, Enarodustat, Molidustat, Vadadustat or Roxadustat molecules dissolved in DMSO. The final DMSO concentration in the cell medium was 0.01%. Cells were maintained in an incubator at 37° C. in a humidified atmosphere containing 5% CO2.
At 48 hours post treatment with either Daprodustat, Enarodustat, Molidustat, Vadadustat or Roxadustat, cells were fixed for 10 minutes together with their media with 8% paraformaldehyde (PFA, Electron Microscopy Sciences) dissolved in phosphate-buffered saline (PBS, Invitrogen) to a final concentration of 4% PFA, without any wash to avoid cells detachment from the glass. Cells were briefly washed four times with ice-cold PBS to remove the PFA and kept overnight at 4° C. The following day, a blocking solution which contains 1.5% Bovine Serum Albumin (Sigma Aldrich) dissolved in PBS was applied for 30 minutes, followed by an overnight incubation at 4° C. with recombinant rabbit anti-mouse Collagen-I 1° antibody (primary Ab) [EPR24331-53] (ab270993, Abcam), dissolved in the blocking solution (1:1000 dilution). The following day, cells were washed for 3 times with PBS (5 minutes each), followed by immunostaining with goat anti-rabbit IgG H&L (Alexa Fluor® 488) 2° antibody (secondary Ab) (ab150077, Abcam) dissolved in blocking solution (1:1000 dilution). Cells were washed again for 3 times with PBS (5 minutes each), stained for 30 minutes with DRAQ5™ (ab108410, Abcam) for nuclei staining dissolved in PBS (1:1000 dilution), and washed once again with PBS. For the ML228 experiment, cells were washed with PBS before applying 4% PFA dissolved in PBS. Then, fixed cells were additionally permeabilized with 0.2% Triton™ X-100 (Merck) dissolved in PBS, additionally stained with Phalloidin-Atto 594 (51927, Sigma Aldrich) for F-Actin staining for 1 hour (1:250 dilution) together with the aforementioned secondary antibody, followed by 10 minutes incubation with DAPI staining solution (ab228549, Abcam) for nuclei staining dissolved in PBS (1:1000 dilution).
Images were taken using a ZEISS LSM 900 in wide-field or in the LSM confocal detection mode (ML228 experiment), using Zen 3.1. Fluorescence readouts were obtained at excitation/emission: 353/465 nm (DAPI), 493/517 nm (Collagen-I), 590/618 (F-Actin) and 647/683 nm (DRAQ5) using a Plan-Apochromat 20×/0.8 M27 objective.
Image acquisition and quantification were performed by Incucyte SX5 (Sartorius) using software version 2022B Rev2. A standard scan was done for 9 images per well using 20× objective, 2 optical modules (green at excitation/emission of 453-485 nm/494-533 nm in 300 msec acquisition time, and near-IR at excitation/emission of 648-674 nm/685-756 nm in 400 msec acquisition time, including Phase channel) following immunofluorescence protocol. For the image analysis, 2-6 replicates per condition were used. Using the Basic Analyzer mode, “Phase Object Confluence (%)” was acquired using the Phase channel. This measurement is the percentage of the image area occupied by cells. “Total Collagen-I Integrated Intensity Per Image (GCU×μm^2/Image)” was acquired using the green optical module. GCU stands for Green calibrated Unit, while this measurement is the total sum of the Collagen-I objects' fluorescent intensity in the image. “#Cells (Per image)” was acquired by the near-IR optical module. […]

The subject of the next series is fibroblasts. Nature of the series: Cell-Titer assay of cellular ATP levels, fibroblasts. As to conditions: for IC50: Homo sapiens, Fibroblast. It is filed as cell-based. The text has this: Human fibroblasts were isolated from fragments of healthy masticatory oral mucosa (from the posterior hard palate) collected during periodontal surgeries. Informed consent was obtained from all patients. Shallow tissue samples (without submucosa) with a diameter of approximately 2 mm were excised using a #15C scalpel blade. Exclusion criteria for potential tissue donors were smoking, any systemic disease, pregnancy or lactation, or a history of periodontal disease. Cells were separated into connective tissue and epithelium using dispase II (Sigma-Aldrich, Rehovot, Israel) at 2 mg/mL for two hours at 37° C.
The live/dead viability assay (cat #04511-1KT-F Merck, Germany) was used according to the manufacturer's protocol. Briefly, cells were incubated in a medium supplemented with the indicated concentrations of ML228 for 48 hours. Fluorescein diacetate (6.6 μg/mL) and propidium iodide (5 μg/mL) (Merck, NJ, USA) were prepared in DMEM and added to the cells. Confocal images were captured after addition of the dyes with ZEISS LSM 900, Laser Scanning Microscope. Fluorescence readouts were obtained with ex/em of 490/515 nm and 535/617 nm for green and red, respectively. Cellular ATP levels were quantified using the cell-titer assay (Promega, WI, USA cat #G7570).

Series [1] relates to HIF-1α, Collagen-I protein levels in fibroblast cells. Nature of the series: Western blot of HIF-1α and Collagen-I in fibroblast lysate. The series is classed as cell-based, human. How it is done:
Cells at a density of 50,000 cells/well in a 24-well plate were cultured for 2 days with variable ML228 concentrations. Cells were sonicated and lysed in a buffer containing 20 mM Tris-HCL pH=7.5 with a protease inhibitor (Abcam, Cambridge, UK) or a protease inhibitor from Merck (539134, Merck). Equal amounts (1 μg) of total protein were loaded and tested using Western blotting. Samples were divided for testing native samples and denaturative samples, which were dependent on each antibody recognition sites. Samples size was separated by a 6% sodium dodecyl sulfate (SDS) gel and transferred to nitrocellulose membranes that was further incubated overnight with primary antibodies of HIF-1α, and β-tubulin. As for detecting Collagen-I, samples were prepared in native conditions absent of SDS and β-mercaptoethanol. Thereafter, samples were separated by a native gel. Detection of Collagen-I was done in 6% native gel enabling observation of non-denatured structural collagen and preventing thermal degradation of the heat sensitive collagen. After extensive washing with TBST (Tris-buffered saline supplemented with 0.1% Tween-20), the membrane was further incubated with an HRP-conjugated secondary antibody for 1 hour. Chemiluminescence values were read after the addition of ECL substrate in a ChemiDoc imager (Biorad CA, USA).

Where two headings read alike, the source gives them in different places.

For `c1ccc(-c2ccc(CNc3nc(-c4ccccn4)nnc3-c3ccccc3)cc2)cc1` [ML228, N-([1,1′-Biphenyl]-4-ylmethyl)-6-phenyl-3-(2-pyridinyl)-1,2,4-triazin-5-amine], the “Collagen type 1 normalized to cells confluence vs untreated cells” value with NIH/3T3 cell line (5 μM ML228, 48 hours, p<0.05) is “reduction”. In addition, the “concentrations with significant increase of Collagen type 1 normalized to cells confluence vs untreated cells” value with NIH/3T3 cell line (48 hours, one-way ANOVA, p<0.05 to p<0.0001) was in the range of 0.31 to 2.5 µM. The half-maximal inhibitory concentration (IC50) in the series on fibroblasts (fibroblasts, 48 hours, read-out: IC50 (ATP levels relative to non-treated cells)) is 679 nM; in the series on fibroblasts (summary statement for the treated cells (fibroblasts and osteoblasts), read-out: IC50 of cellular viability of ML228-treated cells) it was approximately 600 nM. Further, the “metabolically active cell viability as measured by ATP levels” value in the series on fibroblasts (fibroblasts, increasing ML228 concentrations, 48 hours) was “decrease in metabolically active cell viability”. Further, the HIF-1α protein level entry in series [1] (increasing concentrations of ML228, 48 hours) is recorded as “higher levels”; in series [1] (low doses of ML228, 48 hours), “no HIF-1α protein is observed”. The Collagen-I protein level result in series [1] (increasing concentrations of ML228, 48 hours, native gel) is given as “higher levels”.

Source of the values: patent US20250171821A1, “HIF-1 ACTIVATORS AND USES THEREOF” (Ramot at Tel-Aviv University Ltd., priority 2022, published 2025).
